Key:
[1] = molecular target: T1, Ikaros (also known as IKZF1) (Homo sapiens, UniProt Q13422+Q96SW2); test: Ikaros degradation in PBMC of patients (mass spectrometry); assay type: in vivo; settings: Patients 2, 4, 5; oral 50 μg/day or 25 μg/day; 4 hours, day 7, 14, 21 of cycle 1
T1 construct: total peripheral blood mononuclear cell (PBMC) population extracted from whole blood samples of Patient 2, Patient 4, and Patient 5; endogenous in cells; host or cells: peripheral blood mononuclear cells (PBMC) from whole blood of treated patients
Procedure: (§1) Ikaros (also known as IKZF1) and Aiolos (also known as IKZF3) degradation was evaluated using mass spectrometry analysis of total peripheral blood mononuclear cell (PBMC) population extracted from whole blood samples of Patient 2, Patient 4, and Patient 5 taken on the first day of the first cycle (cycle 1, day 1 or C1D1) prior to treatment, 4 hours post Compound 1 treatment, and on day 7, day 14, and day 21 of the treatment cycle.

[2] = tested on: OCI-LY10 human DLBCL intracranial xenografts; test: OCI-LY10 human DLBCL intracranial xenograft study, survival
Procedure: Agents were tested in the OCI-LY10 human DLBCL intracranial model. […] Rituximab was administered from day 1 via i.v. once per week. Rituximab was dosed at 10 and 30 mg/kg. Individual mouse was euthanized once its body weight loss was over 20%.
The cells growing in an exponential growth phase were harvested and counted for tumor inoculation.
99 CB17 SCID mice were inoculated by intracranial injection with OCI-LY10 cells (1×10^6) for tumor development.
Tumor inoculation: Intraperitoneally injected avertin at dosage of 240 mg/kg to anaesthetize the CB17 SCID mice. Fixed the head of the anaesthetized mice to the brain solid positioner, sterilized the head skin with 70% alcohol. […] Punched a hole about 2 mm right of the anterior fontanel and 1 mm ahead the coronal on the skull with a 25 G needle. Cell suspensions were mixed and certain amount was sucked into the 5 μL injector slowly to avoid bubble formation. The cells were swapped around the needle with alcohol to avoid extracranial tumor genesis. The needle was stuck vertically into the formed hold and 5 μL of cell suspension containing 1×10^6 OCI-LY10 cells was slowly injected for over 1 minute. The injector was then held for another 1 minute and then pulled back to decrease the drainage of the cells suspension. The skin was closed with tweezers and then sewed. Meloxicam was then injected 30 min after the surgery at dosage of 5 mg/kg to relieve the pain. The animals were kept under monitoring until they were awake.
Animals were grouped for treatment on day 7 after tumor inoculation.
At the time of routine monitoring, the animals were daily checked for any effects of tumor growth and treatments on normal behavior such as mobility, food and water consumption (by looking only), body weight gain/loss (body weights were measured twice weekly), eye/hair matting and any other abnormal effect as stated in the protocol. Death and observed clinical signs were recorded on the basis of the numbers of animals within each subset.

[3] = molecular target: T2, Aiolos (also known as IKZF3) (Homo sapiens, UniProt Q9UKT9); test: Aiolos degradation in PBMC of patients (mass spectrometry); assay type: in vivo; settings: Patients 2, 4, 5; oral 50 μg/day or 25 μg/day; 4 hours, day 7, 14, 21 of cycle 1
T2 construct: total peripheral blood mononuclear cell (PBMC) population extracted from whole blood samples of Patient 2, Patient 4, and Patient 5; endogenous in cells; host or cells: peripheral blood mononuclear cells (PBMC) from whole blood of treated patients
Procedure: as §1

[4] = tested on: involved and uninvolved free light chains; test: Reduction in dFLC after single agent exposure to Compound 1; assay type: in vivo, human
Procedure: Using samples collecting in Example 24, the difference between involved free light chains and uninvolved free light changes, or dFLC, for Patients 1-3 were calculated using the following formula:
[Abnormal light chainbaseline−normal light chainbaseline]−[Abnormal light chainnadir−normal light chainnadir]/[Abnormal light chainbaseline−normal light chainbaseline]*100 dFLC equation: […]

[5] = Compound 1, 0.01 mg/kg, p.o., QD

T1 sequence (Q13422 whole entry): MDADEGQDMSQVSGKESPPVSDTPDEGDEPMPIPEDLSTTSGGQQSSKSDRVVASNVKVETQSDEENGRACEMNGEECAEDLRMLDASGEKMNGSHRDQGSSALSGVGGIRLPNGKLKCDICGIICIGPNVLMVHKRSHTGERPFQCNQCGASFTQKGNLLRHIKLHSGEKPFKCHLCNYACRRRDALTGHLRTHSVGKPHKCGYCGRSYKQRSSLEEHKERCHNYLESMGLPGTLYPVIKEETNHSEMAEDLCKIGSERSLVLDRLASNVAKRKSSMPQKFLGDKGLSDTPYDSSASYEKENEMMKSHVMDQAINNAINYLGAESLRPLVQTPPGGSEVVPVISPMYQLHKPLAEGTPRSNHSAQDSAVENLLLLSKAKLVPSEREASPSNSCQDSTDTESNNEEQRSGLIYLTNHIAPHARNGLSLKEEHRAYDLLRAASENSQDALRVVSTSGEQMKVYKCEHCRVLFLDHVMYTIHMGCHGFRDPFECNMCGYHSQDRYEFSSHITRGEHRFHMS
T1 sequence (Q96SW2 whole entry): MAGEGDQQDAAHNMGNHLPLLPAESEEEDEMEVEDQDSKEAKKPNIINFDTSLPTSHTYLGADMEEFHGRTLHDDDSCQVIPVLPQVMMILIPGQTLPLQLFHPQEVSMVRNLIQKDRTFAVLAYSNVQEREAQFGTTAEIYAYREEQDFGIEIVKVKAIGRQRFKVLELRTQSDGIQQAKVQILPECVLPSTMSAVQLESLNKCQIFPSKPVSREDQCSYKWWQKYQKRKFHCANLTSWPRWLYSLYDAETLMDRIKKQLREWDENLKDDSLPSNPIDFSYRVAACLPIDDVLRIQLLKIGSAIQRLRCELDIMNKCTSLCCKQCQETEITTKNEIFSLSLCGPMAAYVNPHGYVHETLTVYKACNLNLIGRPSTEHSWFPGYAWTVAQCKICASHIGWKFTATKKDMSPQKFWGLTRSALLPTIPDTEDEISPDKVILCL
T1 sequence (Q16531 whole entry partner): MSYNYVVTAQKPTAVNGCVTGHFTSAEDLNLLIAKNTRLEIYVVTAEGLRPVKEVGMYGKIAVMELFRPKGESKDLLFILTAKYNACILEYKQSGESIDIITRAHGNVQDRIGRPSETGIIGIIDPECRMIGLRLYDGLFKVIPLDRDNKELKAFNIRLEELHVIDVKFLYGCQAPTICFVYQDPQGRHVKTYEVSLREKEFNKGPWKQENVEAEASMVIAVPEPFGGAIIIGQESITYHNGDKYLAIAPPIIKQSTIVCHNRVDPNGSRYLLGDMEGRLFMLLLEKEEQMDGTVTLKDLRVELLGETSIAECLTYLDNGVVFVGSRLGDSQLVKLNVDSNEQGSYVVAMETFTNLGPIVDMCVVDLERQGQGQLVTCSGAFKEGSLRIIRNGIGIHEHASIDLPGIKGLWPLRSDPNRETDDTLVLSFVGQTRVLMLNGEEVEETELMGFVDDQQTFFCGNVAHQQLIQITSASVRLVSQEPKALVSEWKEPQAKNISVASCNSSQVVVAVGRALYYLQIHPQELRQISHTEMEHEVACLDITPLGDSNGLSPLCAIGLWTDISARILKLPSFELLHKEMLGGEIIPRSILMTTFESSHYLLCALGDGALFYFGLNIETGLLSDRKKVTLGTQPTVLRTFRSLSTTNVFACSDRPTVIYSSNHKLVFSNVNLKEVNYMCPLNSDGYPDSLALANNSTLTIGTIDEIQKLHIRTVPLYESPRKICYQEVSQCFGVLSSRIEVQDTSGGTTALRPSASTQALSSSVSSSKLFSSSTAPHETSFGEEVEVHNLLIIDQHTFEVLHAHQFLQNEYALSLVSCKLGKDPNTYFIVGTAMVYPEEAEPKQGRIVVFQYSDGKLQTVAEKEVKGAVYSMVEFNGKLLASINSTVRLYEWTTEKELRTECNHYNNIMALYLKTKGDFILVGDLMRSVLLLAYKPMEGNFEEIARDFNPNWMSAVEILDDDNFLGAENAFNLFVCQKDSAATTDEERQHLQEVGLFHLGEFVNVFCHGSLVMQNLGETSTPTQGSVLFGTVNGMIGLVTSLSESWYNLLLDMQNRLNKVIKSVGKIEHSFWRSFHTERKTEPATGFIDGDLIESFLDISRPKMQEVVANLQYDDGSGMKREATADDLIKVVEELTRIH
T2 sequence (Q9UKT9 whole entry): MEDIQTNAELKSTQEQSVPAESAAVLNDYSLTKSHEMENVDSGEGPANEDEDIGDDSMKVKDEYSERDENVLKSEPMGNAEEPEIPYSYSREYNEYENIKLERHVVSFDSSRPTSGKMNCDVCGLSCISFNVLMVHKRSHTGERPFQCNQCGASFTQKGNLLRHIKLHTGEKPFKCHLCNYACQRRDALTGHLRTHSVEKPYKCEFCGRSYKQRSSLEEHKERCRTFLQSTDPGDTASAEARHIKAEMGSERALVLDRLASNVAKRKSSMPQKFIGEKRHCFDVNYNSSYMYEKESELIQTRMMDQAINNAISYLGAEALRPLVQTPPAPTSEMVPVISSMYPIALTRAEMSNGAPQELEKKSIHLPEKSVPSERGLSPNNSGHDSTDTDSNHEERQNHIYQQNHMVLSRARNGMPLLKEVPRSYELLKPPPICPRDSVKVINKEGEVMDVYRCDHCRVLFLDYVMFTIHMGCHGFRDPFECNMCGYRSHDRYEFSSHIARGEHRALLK
T2 sequence (Q96SW2 whole entry, further chain): as the sequence (Q96SW2 whole entry) above
T2 sequence (Q16531 whole entry partner): as the sequence (Q16531 whole entry partner) above

In the case of `O=C1CC[C@H](N2C(=O)c3cccc4c(Cc5ccc(CN6CCOCC6)cc5)ccc2c34)C(=O)N1` [Compound 1, (S)-3-(6-(4-(morpholinomethyl)benzyl)-2-oxobenzo[cd]indol-1(2H)-yl)piperidine-2,6-dione], the “Ikaros (IKZF1) degradation in PBMC compared to baseline” value [1] is reported as “deep degradation”, the “extension of survival time” value ([2]; Compound 1 0.01 mg/kg p.o. once per day, p=0.001) is reported as 35.7% and the “Median Survival (Days), ± SEM” value [2, 5] is reported as 19.00 ± 1.41 days. The “Survival time extension (%)” value [2, 5] was 35.7%, the “Aiolos (IKZF3) degradation in PBMC compared to baseline” value [3] was “deep degradation” and the “% Change at Nadir in dFLC” value ([4]; Patient 1, first dose 50 μg oral, no extramedullary disease, ∇ (down)) was “∇ 48.2%”. For the same molecule, the “% Change at Nadir in dFLC” value ([4]; Patient 2, first dose 50 μg oral, Multiple Plasmacytomas, ∇ (down)) was “∇ 78.1%”, the “% Change at Nadir in dFLC” value ([4]; Patient 3, first dose 50 μg oral, Lytic Bone Lesions, ∇ (down)) was “∇ 41.0%” and the “% Change at Nadir in dFLC” value ([4]; Patient 4, first dose 50 μg oral, no extramedullary disease, printed with Δ (up)) was “Δ 56.3%”.
